Results on one compound are retold here after patent publication US20260294864A1, “PHARMACEUTICAL COMPOSITION FOR THE TREATMENT AND PREVENTION OF HPV” (NP1 SRL, priority 2022, published 2026).

Holding throughout (format): cell-based, human
For assay [1], the system named is HPV transformed cells. Nature of the assay: Anti-clonal effect on HPV transformed cells (cell line not stated). The note with it: summary statement. Here is the method: The inhibitory relative rate (IRR) (fourth column) provides an efficacy ranking of molecules.
The anti-clonogenic activity was evaluated both by the current standard qualitative plating efficiency assay and by quantitative live cell imaging analysis (INCUCYTE S3 Live Cell Analysis Imaging System—Sartorius Welwyn Garden City, Hertfordshire, UK). For qualitative plating efficiency assay cells were seeded at ‘clonal’ density (i.e., 0.5 cell/mm^2) either in medium containing the testing molecules or with plain medium and incubated without any further manipulation. After 9-14 days, according to the cell line specific proliferative index, the cultures were decanted and stained with 0.2% CV/methanol for 5 min at room temperature. All conditions were tested in triplicates in a 6-well culture plate. The anti-clonogenic activity of the treatments was evaluated using the colony forming units (CFU) of treated versus control cultures. The minimal concentration which could reduce 50% of the CFU of treated versus control culture was defined as colony-forming Inhibitory concentration (CID50). For quantitative evaluation cells were seeded in 96-well microplates at the above density and condition and allowed to grow the subsequent 8-day incubation in the INCUCYTE S3 Imaging System. Images were acquired at 12-hours intervals and colony formation and percentage of growth area covered (confluency) were then monitored through automated image analysis. The analysis parameters were as follows: segmentation adjustment=0.4; hole fill <5,000 μm^2; adjusted pixel=−2.

Assay [2] has as its system ME-180 cells. Nature of the assay: Anti-clonogenic activity on ME-180 cells. The following applies: compared with HeLa data of FIG. 10. The text has this:
(§1) HeLa cells are the oldest continuous cell lines and were originally derived from a HPV18 positive metastatic cervical carcinoma (Scherer W F et al 1953). Siha cells are an epithelioid like cell line derived from a HPV16-positive invasive cervical squamous carcinoma (Friedel F et al 1970). Ca-Ski cells are a line harboring multiple copy of transcriptionally active HPV16 genomes (Baker C C et al 1984). Both Hela and Siha were a kind gift of prof MS Campo, The Beatson Institute for Cancer Research, Glasgow, Scotland. These two cell lines because of their versatility and ease of use were used for most of experiments reported. Ca-Ski cells were obtained through the courtesy of prof. Matthias Durst, at the Deutsch Krebsforschungzentrum—Heidelberg, FRG. […]
(§2) The anti-clonogenic activity was evaluated both by the current standard qualitative plating efficiency assay and by quantitative live cell imaging analysis (INCUCYTE S3 Live Cell Analysis Imaging System—Sartorius Welwyn Garden City, Hertfordshire, UK). […] The anti-clonogenic activity of the treatments was evaluated using the colony forming units (CFU) of treated versus control cultures. […] For quantitative evaluation cells were seeded in 96-well microplates at the above density and condition and allowed to grow the subsequent 8-day incubation in the INCUCYTE S3 Imaging System. […]

Assay [3] has as its system HeLa cells. Nature of the assay: Anti-clonogenic activity on HeLa cells (plating efficiency assay / live cell imaging). The note with it: HeLa. As to the method:
Panel C and D: diagrammatic topographical maps of treatments and growth conditions on plates A and B respectively.
Panel A. Hela cells were challenged with serial twofold dilutions of 50 μM Luteolin (in columns 1-6) and 100 μM Galangin (columns 7-10). Hela control untreated cells in columns 11-12.
A total of 6 cell lines, outlined in Table 3, were used for this study. The cell lines were obtained from Research Centres of cell biology in Italy, United Kingdom and Germany. This research raised no ethical concern being based on entirely in vitro experiments using no patients' derived information or material. In compliance with National and International ethical rules, no informed consent is needed.
HeLa cells are the oldest continuous cell lines and were originally derived from a HPV18 positive metastatic cervical carcinoma (Scherer W F et al 1953). Siha cells are an epithelioid like cell line derived from a HPV16-positive invasive cervical squamous carcinoma (Friedel F et al 1970). Ca-Ski cells are a line harboring multiple copy of transcriptionally active HPV16 genomes (Baker C C et al 1984). Both Hela and Siha were a kind gift of prof MS Campo, The Beatson Institute for Cancer Research, Glasgow, Scotland. These two cell lines because of their versatility and ease of use were used for most of experiments reported. Ca-Ski cells were obtained through the courtesy of prof. Matthias Durst, at the Deutsch Krebsforschungzentrum—Heidelberg, FRG. These cells used together with Siha provide a model for the genetic instability and variability of cervical cancers. HK-168 is an immortalized, non-tumorigenic, continuous cell line derived from human skin keratinocytes in vitro transformed with whole HPV16 genome (De Marco F et al 2007). This cell line is reputed to recapitulate le biological features of transformed dysplastic cells and was used in preliminary experiments to set the experimental dosages and conditions. The ME-180 cells are a cell line harboring a few, transcriptionally active, copies of HPV68 and provide an in vitro model for dysplastic/neoplastic lesions induced by HPV with Intermediate oncogenic Risk (Yee C C et al 1985). The HaCaT cells, derived from a solar skin lesion by Petra Boukamp et al (1988) are here used as an in vitro equivalent of Ultra-Violet induced pre-neoplastic epithelial cells to rule out possible direct toxic effects of polyphenols. Both HaCaT and ME-180, were kindly donated by Prof. Matthias Durst. Hela, Siha, Ca-Ski, ME-180 and HaCaT were all grown in high glucose DMEM supplemented with 10% fetal calf serum (FCS). The HK-168 cells, which retained the ability to terminally differentiate under high Ca^2+ and FCS concentrations, were grown in K-SFM, a chemically defined medium supplemented with human EGF and bovine pituitary extract (ThermoFisher Scientific, Life Technologies, Monza—MI). Each cell line was sub-cultured twice a week at the appropriate split ratio according to the specific proliferative index. In no case antibiotics or antimycotics were added to the culture media. For the present study, all cell lines were retrieved from an in-house cell archive facility.
The anti-clonogenic activity was evaluated both by the current standard qualitative plating efficiency assay and by quantitative live cell imaging analysis ([…] S3 Live Cell Analysis Imaging System—Sartorius Welwyn Garden City, Hertfordshire, UK).

The test system of assay [4] is Ca-Ski cells. Nature of the assay: Anti-clonogenic activity on Ca-Ski cells. The note with it: compared with HeLa data of FIG. 10.
Text: as §1, §2

For `COc1cc(/C=C/C(=O)O)ccc1O` [Ferulic acid], the “clonal inhibition in combination” value in assay [1] (combined with Galangin, Chrysin or Apigenin) is “a certain grade of clonal inhibition”. Further, in assay [1] (isolated compound), the “anticlonogenic / anti-clonal effect” value was “devoid of. any direct anticlonogenic activity”. Besides, the “clonal inhibition with Galangin, Chrysin or Apigenin” value in assay [2] and in assay [4] was “Superimposable results” throughout. Also, the “clonal inhibition in combination with Apigenin” value in assay [3] (50 μM combined with Apigenin 25 μM, FIG. 9-11) is “almost complete clonal inhibition”. The “clonal inhibition in combination with Chrysin” value in assay [3] (50 μM combined with Chrysin 25 μM, FIG. 10-11) is “almost complete clonal inhibition”. Further, the “clonal inhibition in combination with Galangin” value in assay [3] (50 μM combined with Galangin 12.5 μM, FIG. 9-10) was “almost complete clonal inhibition”. The “end point clonal assay, clonal inhibition alone” value in assay [3] (50 μM, administered alone, FIG. 9-11) is on record as “Neither of them induced any effect”. The Anti-clonal effect result in assay [3] (50 μM, isolated, FIG. 1) was “devoid of any significant anticlonogenic effect”. Also, in assay [3] (in association, FIG. 10-11), the “synergy with Galangine, Apigenin and Chrysin” value was “synergize”.
